Measured values from article PMC8222254, “Self-assembly of an anion receptor with metal-dependent kinase inhibition and potent in vitro anti-cancer properties” (Nature Communications, 2021).
Several values for one entry are separate records, joined by “and”; a condition that tells them apart may be missing. Equal values may be shown once.

Experiments:
Assay in all cases: Kinase inhibition screen, cell-free 33P ATP assay at 10 μM
Assay type in all cases: biochemical
[1] = target: T1, 140 purified human kinases (Homo sapiens, UniProt Q15139)
T1 sequence (Q15139 1-912): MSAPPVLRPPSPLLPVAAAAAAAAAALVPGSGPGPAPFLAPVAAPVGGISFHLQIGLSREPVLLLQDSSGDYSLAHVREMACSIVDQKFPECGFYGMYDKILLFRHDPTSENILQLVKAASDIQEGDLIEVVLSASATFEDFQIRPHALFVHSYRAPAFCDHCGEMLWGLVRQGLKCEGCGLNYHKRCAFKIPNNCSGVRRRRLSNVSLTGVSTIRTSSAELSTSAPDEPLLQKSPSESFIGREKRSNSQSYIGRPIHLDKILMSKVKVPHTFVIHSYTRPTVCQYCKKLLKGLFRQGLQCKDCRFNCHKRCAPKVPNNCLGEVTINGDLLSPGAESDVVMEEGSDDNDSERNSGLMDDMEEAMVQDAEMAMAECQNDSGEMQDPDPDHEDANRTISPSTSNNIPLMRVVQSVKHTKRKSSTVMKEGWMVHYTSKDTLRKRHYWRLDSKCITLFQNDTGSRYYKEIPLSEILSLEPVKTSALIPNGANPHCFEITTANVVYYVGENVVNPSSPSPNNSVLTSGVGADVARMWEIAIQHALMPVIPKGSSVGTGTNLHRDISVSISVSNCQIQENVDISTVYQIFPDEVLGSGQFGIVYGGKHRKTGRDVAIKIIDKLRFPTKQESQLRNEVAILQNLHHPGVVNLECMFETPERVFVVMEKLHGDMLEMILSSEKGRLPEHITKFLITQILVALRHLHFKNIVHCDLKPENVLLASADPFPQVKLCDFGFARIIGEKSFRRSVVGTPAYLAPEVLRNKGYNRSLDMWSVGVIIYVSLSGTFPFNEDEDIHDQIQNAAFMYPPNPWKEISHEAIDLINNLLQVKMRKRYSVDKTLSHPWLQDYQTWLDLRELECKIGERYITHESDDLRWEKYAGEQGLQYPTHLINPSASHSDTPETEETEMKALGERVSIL
Method in brief: (§1)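 Each complex tested in duplicate at 10 μM; cell-free radiometric assay using ^33P ATP on purified enzymes. Hits mapped by HGNC symbol onto the kinome tree.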

[2] = target: 140 purified human kinases (Homo sapiens, UniProt Q15759); details: p38b MAPK
Sequence of 140 purified human kinases (Homo sapiens, UniProt Q15759) (Q15759 whole entry): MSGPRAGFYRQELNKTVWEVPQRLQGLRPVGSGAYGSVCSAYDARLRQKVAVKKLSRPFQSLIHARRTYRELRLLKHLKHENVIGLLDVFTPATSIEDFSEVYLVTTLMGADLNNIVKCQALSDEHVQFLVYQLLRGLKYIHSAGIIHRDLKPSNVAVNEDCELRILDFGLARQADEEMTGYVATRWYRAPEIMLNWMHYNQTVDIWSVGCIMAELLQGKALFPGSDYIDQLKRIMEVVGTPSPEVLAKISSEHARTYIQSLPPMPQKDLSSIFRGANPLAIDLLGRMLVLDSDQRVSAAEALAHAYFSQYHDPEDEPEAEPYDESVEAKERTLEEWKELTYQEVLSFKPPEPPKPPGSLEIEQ
Method in brief: as §1

[3] = target: 140 purified human kinases (Homo sapiens, UniProt Q16539); details: p38a MAPK
Sequence of 140 purified human kinases (Homo sapiens, UniProt Q16539) (Q16539 whole entry): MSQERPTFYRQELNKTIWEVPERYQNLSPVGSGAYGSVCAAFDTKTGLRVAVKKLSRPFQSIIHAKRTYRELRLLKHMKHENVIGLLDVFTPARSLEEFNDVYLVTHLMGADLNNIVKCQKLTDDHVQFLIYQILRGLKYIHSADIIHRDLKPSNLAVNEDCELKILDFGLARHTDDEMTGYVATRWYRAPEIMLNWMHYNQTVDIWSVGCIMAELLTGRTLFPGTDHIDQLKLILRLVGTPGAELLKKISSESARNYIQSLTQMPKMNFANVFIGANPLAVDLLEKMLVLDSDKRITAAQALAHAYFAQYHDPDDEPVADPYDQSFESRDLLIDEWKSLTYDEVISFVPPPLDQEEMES
Method in brief: as §1

[4] = target: T2, 140 purified human kinases (Homo sapiens, UniProt Q9UHD2)
T2 sequence (Q9UHD2 1-729): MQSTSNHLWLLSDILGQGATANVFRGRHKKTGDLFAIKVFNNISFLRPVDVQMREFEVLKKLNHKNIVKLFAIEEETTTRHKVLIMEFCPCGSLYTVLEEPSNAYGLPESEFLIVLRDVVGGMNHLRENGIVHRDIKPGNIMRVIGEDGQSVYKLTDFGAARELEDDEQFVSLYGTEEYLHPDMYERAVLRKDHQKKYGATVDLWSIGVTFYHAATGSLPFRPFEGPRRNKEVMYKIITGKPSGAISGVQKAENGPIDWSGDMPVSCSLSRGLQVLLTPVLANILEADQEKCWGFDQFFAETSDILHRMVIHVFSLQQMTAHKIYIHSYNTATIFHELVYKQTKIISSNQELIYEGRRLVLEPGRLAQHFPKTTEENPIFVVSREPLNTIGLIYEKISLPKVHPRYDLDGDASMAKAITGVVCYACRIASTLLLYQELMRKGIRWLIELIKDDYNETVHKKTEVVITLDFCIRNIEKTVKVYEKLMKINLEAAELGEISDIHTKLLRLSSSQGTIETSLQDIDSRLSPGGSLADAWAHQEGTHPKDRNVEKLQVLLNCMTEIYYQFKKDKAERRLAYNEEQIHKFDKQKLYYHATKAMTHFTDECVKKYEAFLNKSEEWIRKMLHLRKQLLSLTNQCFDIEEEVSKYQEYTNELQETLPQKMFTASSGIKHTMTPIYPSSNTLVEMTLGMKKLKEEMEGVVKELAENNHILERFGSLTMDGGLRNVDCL
Method in brief: as §1

Src = target: T3, Src (Homo sapiens, UniProt P12931); details: for kinase activity of Src: 10 μM complex, cell-free screen; for % Activity Run 1 / % Activity Run 2: 10 µM
T3 construct: His tag (N); host or cells: baculovirus expression system
T3 sequence (P12931 whole entry): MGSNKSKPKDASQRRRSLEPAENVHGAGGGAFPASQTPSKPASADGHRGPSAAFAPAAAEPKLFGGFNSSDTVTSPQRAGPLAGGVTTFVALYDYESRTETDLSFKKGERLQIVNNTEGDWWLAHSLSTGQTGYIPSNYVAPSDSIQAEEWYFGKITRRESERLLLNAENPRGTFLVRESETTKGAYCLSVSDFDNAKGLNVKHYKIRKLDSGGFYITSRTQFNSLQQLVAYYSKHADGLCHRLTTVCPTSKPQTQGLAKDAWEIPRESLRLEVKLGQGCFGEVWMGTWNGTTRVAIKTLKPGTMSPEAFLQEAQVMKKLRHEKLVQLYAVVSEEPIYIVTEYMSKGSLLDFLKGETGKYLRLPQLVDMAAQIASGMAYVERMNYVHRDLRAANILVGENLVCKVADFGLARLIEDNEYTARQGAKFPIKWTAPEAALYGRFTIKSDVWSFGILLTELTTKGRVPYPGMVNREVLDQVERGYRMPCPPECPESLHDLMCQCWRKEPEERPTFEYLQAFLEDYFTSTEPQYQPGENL
Method in brief: as §1

Row | Structure (SMILES) | % Inhibition, Mean ([1]; PKD1) [%] | mean % activity ([1]; PKD1) [%] | % Inhibition, Mean [2] [%] | mean % activity [2] [%] | % Inhibition, Mean [3] [%] | mean % activity [3] [%] | % Inhibition, Mean ([4]; TBK1) [%] | mean % activity ([4]; TBK1) [%] | kinase activity of Src (Src) | % Activation, Mean value (Src; Src) [%] | % Inhibition, Mean (Src; Src) [%] | mean % activity (Src; Src) [%] | % Activity Run 1 (Src; Src) [%] | % Activity Run 2 (Src; Src) [%] | other results
1 | CC(=O)[O-].CC(=O)[O-].CC(=O)[O-].CC(=O)[O-].CC(=O)[O-].CC(=O)[O-].[Zn+2].[Zn+2].[Zn+2].c1ccc(-c2csc(NCCN(CCNc3nc(-c4ccccn4)cs3)CCNc3nc(-c4ccccn4)cs3)n2)nc1.c1ccc(-c2csc(NCCN(CCNc3nc(-c4ccccn4)cs3)CCNc3nc(-c4ccccn4)cs3)n2)nc1 [[L2Zn3]6+] | 45 | 55 | -0.45 | 100 | 16 | 84 | 13 | 87 | increased | 75 | -75 | 175 | 169.0 | 180.0 | % Inhibition, Run 1 / Run 2 ([1]; PKD1): 50% and 40%; % activity ([1]; PKD1, duplicate runs): 50% and 60%; % Inhibition, Run 1 / Run 2 [2]: 0.2% and -1.1%; % activity ([2]; duplicate runs): 100% and 101%; % activity ([3]; duplicate runs): 72% and 95%; % activity ([4]; TBK1, duplicate runs): 81% and 93%; % activity (Src; Src, duplicate runs): 169% and 180%
2 | [Cu+2].[Cu+2].[Cu+2].c1ccc(-c2csc(NCCN(CCNc3nc(-c4ccccn4)cs3)CCNc3nc(-c4ccccn4)cs3)n2)nc1.c1ccc(-c2csc(NCCN(CCNc3nc(-c4ccccn4)cs3)CCNc3nc(-c4ccccn4)cs3)n2)nc1 [[L2Cu3]6+] | 72 | 28 | 12 | 88 | 3.75 | 96 | 62 | 38 | increased | 115 | -115 | 215 | 209.20 | 221.70 | % Inhibition Run 1 ([1]; PKD1): 73%; % Inhibition Run 2 ([1]; PKD1): 71.7%; % activity ([1]; PKD1, Run 1): 27%; % activity ([1]; PKD1, Run 2): 28.3%; % Inhibition Run 1 [2]: 24.1%; % Inhibition Run 2 [2]: 0.3%; % activity ([2]; Run 1): 75.9%; % activity ([2]; Run 2): 99.7%; % Inhibition Run 1 [3]: 12.7%; % Inhibition Run 2 [3]: -5.2%; % activity ([3]; Run 1): 87.3%; % activity ([3]; Run 2): 105.2%; % Inhibition Run 1 ([4]; TBK1): 60.3%; % Inhibition Run 2 ([4]; TBK1): 64%; % activity ([4]; TBK1, Run 1): 39.7%; % activity ([4]; TBK1, Run 2): 36%; % Inhibition Run 1 (Src; Src): -109.2%; % Inhibition Run 2 (Src; Src): -121.7%; % activity (Src; Src, Run 1): 209.2%; % activity (Src; Src, Run 2): 221.7%
